Tests used:
[1] = Determination of oral absorption (bioavailability) in the rat
Experimental: The following assay was used to determine the oral absorption (oral bioavailability) of the compound of Formula I (L-monovaline ester of ganciclovir) and of other ganciclovir amino acid esters, other ganciclovir esters and ethers examined for comparative purposes.
To measure the oral bioavailability of a compound first the plasma level of the compound in male rats was determined after a single oral (po) dose of the compound. […] For ganciclovir the single dose in each case, po and iv, is 10 mg/kg; for a prodrug ester (including the L-monovaline ester of ganciclovir) the single dose in each case, oral and iv, is a dose equimolar to 10 mg/kg of ganciclovir. From the two measurements following po and iv administration, the oral bioavailability of a compound was calculated by dividing the total area under the concentration vs. time curve following p.o. administration by the total area under the concentration vs. time curve following iv administration, appropriately corrected for dose, according to the equation: F(p.o.) (%) = [AUC(p.o.) /AUC(i.v.) ] x [Dose(i.v.) / Dose(p.o.) ] x 100 [formula]
The dose vehicle for oral and intravenous dosing consisted normal saline containing 2 % acetic acid. In both cases the compound concentration was equivalent to 4.0 mg/ml ganciclovir with a dose rate equivalent to 10 mg/kg (2.5 ml/kg) of ganciclovir. A 200 gm rat received 0.5 ml of the oral drug solution by gavage or via injection into the tail vein.
The rats were acclimatized to the laboratory environment for three days and fasted overnight before start of the experiment and until 4 hours after dosing. Blood was collected from 4 rats at each of the following times: 0 min (pre-dose), 5 min (iv only), 15 min, 30 min, 1 hr, 2 hr, 3 hr, 5 hr, 7 hr, 10 hr and 24 hr. The blood was immediately centrifuged to obtain the plasma and the plasma frozen at -20 °C until analysis.
Aliquots of plasma (0.50 ml) were mixed with 0.020 ml of internal standard (acyclovir, 15 µg/ml in 10 % methanol/water) and 3.0 ml of acetonitrile. The mixture was vortexed and the resulting precipitate was removed by centrifugation (4,000 g, 10 min). The supernatant was evaporated to dryness under nitrogen and reconstituted in 200 µl of HPLC mobile phase. Aliquots (0.05 ml) were analyzed by HPLC using a Keystone Hypersil BDS, 250 x 4.6 mm C 18 column. The mobile phase contained 2 % acetonitrile in 30 mM sodium phosphate buffer containing 5 mM heptane sulfonic acid, pH 2.0 and was pumped at 1.0 ml/min. Ganciclovir and internal standard were detected and measured by UV absorbance at 254 nm.

[2] = Determination of oral absorption (bioavailability) in the Cynomolgus monkey; type: in vivo, Male cynomolgus monkeys; conditions: oral gavage dose equimolar to 10 mg/kg ganciclovir, plasma ganciclovir
Experimental: Male cynomolgus monkeys weighing 5 to 7 kilos were used. The animals were fed monkey chow, fruit and water and maintained on a 12 hour light cycle. The tested compounds were formulated at a concentration equimolar to a 10 mg/ml solution of ganciclovir in saline. The oral formulation was administered by gavage at a rate of 1.0 ml/kg for a final dose equimolar to a 10 mg/kg dose of ganciclovir. The iv formulation of ganciclovir was formulated in saline containing 0.2% HCl at a concentration of 20 mg/ml and administered at a rate of 0.5 ml/kg.
The animals were fasted beginning the evening prior to dosing and until 4 hr after dosing. […] The blood samples were collected in heparinized syringes and the plasma was immediately isolated by centrifugation and frozen at -20 °C until analysis.
The bioavailability (F) is calculated according to the equation given in Example 9.

[3] = type: physicochemical; conditions: pH 7
Experimental: Alternatively, the compound of the invention may be prepared using optically active reactants. When pure diastereomers of mono-L-valine ganciclovir are prepared the condensation step (d) is the preferred method of synthesis. However, if optically active reagents are being used it would be important to avoid the pH range above 6, as at the higher pH range interconversion of the free compound of Formula I occurs.

[4] = in vivo, po; cited from earlier work
[5] = relative to acyclovir; cited from earlier work

**Q.** Which “ORAL BIOAVAILABILITY (F %)” value ([1]; male rats, single po and iv dose equimolar to 10 mg/kg ganciclovir, plasma ganciclovir AUC 0-24 hr) does the source give for `Nc1nc2c(ncn2COC(COCc2ccccc2)COCc2ccccc2)c(=O)[nH]1` [G-dibenzyl ether] here?
**A.** non-detectable

**Q.** Which bioavailability at 24 h ([1]; rat, plasma, po, 10 mg/kg) does the source give for `Nc1nc(O)c2ncn(COC(CO)CO)c2n1` [Ganciclovir, 2-(2-Amino-1,6-dihydro-6-oxo-purin-9-yl)-methoxy-1,3-propanediol] here?
**A.** 7.9%

**Q.** What about the bioavailability [2] of the same molecule?
**A.** 9.9%

**Q.** Which half-life [3] does the source give for `CC(C)[C@H](N)C(=O)OCC(CO)OCn1cnc2c(=O)nc(N)[nH]c21` (stereo partly drawn) [Formula I, 2-(2-amino-1,6-dihydro-6-oxo-purin-9-yl)methoxy-3-hydroxy-1-propanyl-L-valinate] here?
**A.** less than one

**Q.** Which “ORAL BIOAVAILABILITY (F %)” value ([1]; rat, in vivo, 1440 min) does the source give for `CC(C)[C@H](N)C(=O)OCC(CO)OCn1cnc2c(=O)[nH]c(N)nc21.Cl` (stereo partly drawn) [G-L-valinate hydrochloride, 2-(2-Amino-1,6-dihydro-6-oxo-purin-9-yl)methoxy-3-hydroxy-1-propanyl-L-valinate hydrochloride] here?
**A.** 98.1%

**Q.** With `CCC(=O)OCC(COC(=O)CC)OCn1cnc2c(=O)[nH]c(N)nc21` [G-bis(propionic acid) ester] as the molecule, how does the “ORAL BIOAVAILABILITY (F %)” value ([1]; rat, in vivo, 1440 min) read?
**A.** 17.7%

**Q.** And the “more bioavailable than ganciclovir itself” value [4]?
**A.** about 42%

**Q.** Which “solubility greater than the solubility of acyclovir itself” value [5] does the source give for `NCC(=O)OCCOCn1cnc2c(=O)[nH]c(N)nc21` [glycyl ester of acyclovir] here?
**A.** about 30 fold

Reference: patent EP0694547B1, “2-(2-amino-1,6-dihydro-6-oxo-purin-9-yl)methoxy-1,3-propanediol derivatives” (F. Hoffmann-La Roche AG, priority 1994, dated 1996)
